We go through 24 molecules from PMC11679793, “Structure-Activity Relationship Study of Majusculamide D: Overcoming Metabolic Instability and Severe Toxicity with a Fluoro Analogue” (Marine Drugs, 2024).

The subject of one data set is PANC-1 cells. Put plainly: MTT cell activity assay (inhibitory activity against PANC-1 cells). The data set is classed as cell-based. As for the experimental part: A total of 3000 PANC-1 cells were resuspended in 200 μL of culture medium and seeded into 96-well plates. After 24 h, the cells were treated with the compound and incubated for an additional 72 h. Following the incubation, 20 μL of 5 mg/mL MTT solution (Solarbio, China) was added to each well in the dark, and the cells were incubated for another 4 h. After incubation, the culture medium was discarded, and the wells were washed with PBS to remove any residual medium. Then, 200 μL of DMSO was added to each well to fully dissolve the formazan crystals, and the solution was mixed thoroughly. The absorbance was measured at 492 nm/570 nm, and the data were analyzed using GraphPad Prism.

Data set [1] can be described thus: Preliminary water solubility test. The data set is classed as physicochemical. The conditions noted are these: thermodynamic from solid, 25 °C, ultrasonic treatment 30 min, visual.
The next data set has as its system PANC-1 xenograft tumor. As for the experimental part: Furthermore, a xenografted murine subcutaneous tumor model was employed to evaluate the effects of majusculamide D and the optimized analogues 1c and 1n (Figure 1B). PANC1-bearing BALB/c nude mice were separated randomly, with a total of six mice in each group. Gemcitabine was chosen as the positive drug; the mice were then administered intravenous doses of 1c (5 mg/kg), 1n (5 mg/kg), 1a (5 mg/kg), and gemcitabine (20 mg/kg) every other day for 24 days.
A total of 4 × 10^6 PANC-1 cells suspended in 100 μL PBS were subcutaneously injected into the right shoulder region of BALB/c nude mice. When the tumor volume reached approximately 200 mm^3, the mice were euthanized, and the tumor tissues were harvested and designated as F1 generation. Tumor tissues were then cut into small cubes measuring approximately 3 × 3 × 3 mm, which were implanted into new BALB/c mice to propagate the tumors. This procedure was repeated to obtain the F2 generation of tumors. Finally, mice bearing F3 generation transplant tumors were used for drug treatment experiments. When the tumor volume reached approximately 80–100 mm^3, the mice were randomly divided into five groups (n = 6): control group, 5 mg/kg compound 1a group, 5 mg/kg compound 1c group, 5 mg/kg compound 1n group, and 20 mg/kg gemcitabine group. The compounds 1a, 1c, and 1n were dissolved in DMSO and then diluted with 0.9% physiological saline to achieve a final concentration of 0.5 mg/mL as the dosing concentration. Gemcitabine was dissolved directly in 0.9% saline to achieve a final concentration of 2 mg/mL as the dosing concentration. The compounds were administered intravenously every two days, alternating between the left and right tail veins to minimize vein damage. Injections were performed using ultra-fine syringes (30G needles) to reduce stress and ensure consistent delivery. The body weight and tumor volume of the mice were measured every four days. On day 24, the mice were euthanized, and the tumor weights were recorded. Tumor volume (V) was calculated using the formula: V = (ab^2)/2, with “a” representing the long diameter of the tumor and “b” representing the short diameter of the tumor. […] Tumor weight was used to calculate the tumor inhibition rate (Figure 1G).

[2] abbreviates: Homo sapiens, PANC-1, 72 h, read-out: IC50 (nM), inhibitory activity against PANC-1 cells (Table 1), PANC-1 cells, 72 h incubation, mean ± SD, n = 3.
Setting [3] is: Homo sapiens, PANC-1 cells, 72 h incubation, mean ± SD, n = 3, read-out: IC50 (nM), inhibitory activity against PANC-1 cells (Table 1).
Setting [4] is: read-out: IC50 (nM), inhibitory activity against PANC-1 cells (Table 1), PANC-1 cells, 72 h incubation, mean ± SD, n = 3.
Where [5] appears, read: Homo sapiens, PANC-1 cells, 72 h incubation, mean ± SD, n = 3, Table 2 series, read-out: IC50 (nM), inhibitory activity against PANC-1 cells (Table 2).

Molecules are shown by their SMILES. Values after ≈ are worked out from the molar mass of the structure shown. Read-outs that look alike come from different tables or passages of the source. A value given as a limit tells only on which side of the number the result lay.

As usually defined, the IC50 is the concentration needed to halve the response being measured. With `CCCCC(C)CC(C)C(=O)N(C)C(Cc1ccc(OC)cc1)C(=O)NC(COC(C)=O)C(=O)N(C)C(C(=O)N1CC(O)CC1C(=O)N1C(=O)C=CC1C)C(C)C` (stereo not shown) [Compound 1d], in the data set with PANC-1 cells (setting [2]), the IC50 came out at 2.15 ± 0.37 nM.
Consider `CCCCC(C)CC(C)C(=O)N(C)C(Cc1ccc(OC)cc1)C(=O)NC(C(=O)N(C)C(C(=O)N1CC(O)CC1C(=O)N1C(=O)C=CC1C)C(C)C)C(C)NC(C)=O` (stereo not shown) [Compound 1e], for which the IC50 in the data set with PANC-1 cells (setting [3]) came to 2.94 ± 0.93 nM.
In the case of `CCCCC(C)CC(C)C(=O)N(C)C(Cc1ccccc1)C(=O)NC(C(=O)N(C)C(C(=O)N1CC(O)CC1C(=O)N1C(=O)C=CC1C)C(C)C)C(C)OC(C)=O` (stereo not shown) [Compound 1h], in the data set on PANC-1 cells (setting [2]), the IC50 was 72 ± 21.9 nM.
For `CCCCC(C)CC(C)C(=O)N(C)C(Cc1ccc(-c2ccccc2)cc1)C(=O)NC(C(=O)N(C)C(C(=O)N1CC(O)CC1C(=O)N1C(=O)C=CC1C)C(C)C)C(C)OC(C)=O` (stereo not shown) [Compound 1j], the IC50 was less than 1 nM in the data set on PANC-1 cells (setting [2]) and 0.7 ± 0.07 nM in the data set with PANC-1 cells (setting [4]).
In the case of `CCCCC(C)CC(C)C(=O)N(C)C(Cc1ccc(OC)cc1)C(=O)NC(C(=O)N(C)C(C(=O)N1CC(F)CC1C(=O)N1C(=O)C=CC1C)C(C)C)C(C)OC(C)=O` (stereo not shown) [Compound 1k], in the data set with PANC-1 cells (setting [2]), the IC50 is 2.55 ± 0.55 nM.
Same read-out and setting: the same measure for `CCCCC(C)CC(C)C(=O)N(C)C(Cc1ccc(OC)cc1)C(=O)NC(C(=O)N(C)C(C(=O)N1CC(O)CC1C(=O)N1CC=CC1=O)C(C)C)C(C)OC(C)=O` (stereo not shown) [Compound 1l]: 134 ± 78.2 nM.
`CCCCC(C)CC(C)C(=O)N(C)C(Cc1ccc(OC)cc1)C(=O)NC(C(=O)N(C)C(C(=O)N1CC(O)CC1C(=O)N1C(=O)C=CC1C)C(C)C)C(C)OC(C)=O` (stereo not shown) [Compound 1m]: the IC50 in the data set with PANC-1 cells (setting [4]) came out at 4.68 ± 0.59 nM.
On to `CCCCC(C)CC(C)C(=O)N(C)C(Cc1ccc(OC)cc1)C(=O)NC(C(=O)N(C)C(C(=O)N1CC(O)CC1C(=O)N1C(=O)C=CC1C)C(C)C)C(C)O` (stereo not shown) [Compound 14a], for which the IC50 in the data set on PANC-1 cells (setting [2]) turned out to be 1160 ± 195 nM.
On to `CCCCC(C)CC(C)C(=O)N(C)C(Cc1ccc(OC)cc1)C(=O)NC(C(=O)N(C)C(C(=O)N1CC(O)CC1C(=O)N1C(=O)C=CC1C)C(C)C)C(C)NC(=S)NC` (stereo not shown) [Compound 14b], for which, in the data set on PANC-1 cells (setting [3]), the IC50 stood at 1.06 ± 0.35 nM.
`CCCCC(C)CC(C)C(=O)N(C)C(Cc1ccc(O)cc1)C(=O)NC(C(=O)N(C)C(C(=O)N1CC(O)CC1C(=O)N1C(=O)C=CC1C)C(C)C)C(C)OC(C)=O` (stereo not shown) [Compound 14c]: in the data set with PANC-1 cells (setting [2]), the IC50 turned out to be 5.31 ± 1.46 nM.
The term solubility denotes how much of the substance goes into solution per volume. A high value points to much dissolved substance. As to `CCCC[C@@H](C)C[C@@H](C)C(=O)N(C)[C@@H](Cc1ccc(OC)cc1)C(=O)N[C@H](C(=O)N(C)[C@H](C(=O)N1C[C@@H](O)C[C@H]1C(=O)N1C(=O)C=C[C@@H]1C)C(C)C)[C@@H](C)NC(=O)[C@@H]1CCCN1` [Compound 16a], in the data set on PANC-1 cells (setting [5]), the IC50 was found to be 40.8 ± 14.1 nM. In addition, in data set [1], the solubility stood at 0.21 mg/mL (≈ 242 µM).
On the same counts, the results for `CCCC[C@@H](C)C[C@@H](C)C(=O)N(C)[C@@H](Cc1ccc(OC)cc1)C(=O)N[C@H](C(=O)N(C)[C@H](C(=O)N1C[C@@H](O)C[C@H]1C(=O)N1C(=O)C=C[C@@H]1C)C(C)C)[C@@H](C)NC(=O)[C@@H](N)[C@@H](C)O` [Compound 16b] are 116 ± 54 nM and 0.41 mg/mL (≈ 471 µM).
The like results for `CCCC[C@@H](C)C[C@@H](C)C(=O)N(C)[C@@H](Cc1ccc(OC)cc1)C(=O)N[C@H](C(=O)N(C)[C@H](C(=O)N1C[C@@H](O)C[C@H]1C(=O)N1C(=O)C=C[C@@H]1C)C(C)C)[C@@H](C)NC(=O)[C@@H](N)Cc1c[nH]c2ccccc12` [Compound 16c] were, in that order, 34.4 ± 4.5 nM and 0.2 mg/mL (≈ 209 µM).
For the molecule `CCCC[C@@H](C)C[C@@H](C)C(=O)N(C)[C@@H](Cc1ccc(OC)cc1)C(=O)N[C@H](C(=O)N(C)[C@H](C(=O)N1C[C@@H](O)C[C@H]1C(=O)N1C(=O)C=C[C@@H]1C)C(C)C)[C@@H](C)NC(=O)CNC` [Compound 16d], the IC50 in the data set on PANC-1 cells (setting [5]) turned out to be 16.2 ± 6.72 nM. This molecule had a solubility in data set [1] of 0.81 mg/mL (≈ 964 µM).
On the same counts, the results for `CCCC[C@@H](C)C[C@@H](C)C(=O)N(C)[C@@H](Cc1ccc(OC)cc1)C(=O)N[C@H](C(=O)N(C)[C@H](C(=O)N1C[C@@H](O)C[C@H]1C(=O)N1C(=O)C=C[C@@H]1C)C(C)C)[C@@H](C)NC(=O)[C@@H](N)CC(C)C` [Compound 16e] are 34.2 ± 6.36 nM and 0.23 mg/mL (≈ 261 µM).
The like results for `CCCC[C@@H](C)C[C@@H](C)C(=O)N(C)[C@@H](Cc1ccc(OC)cc1)C(=O)N[C@H](C(=O)N(C)[C@H](C(=O)N1C[C@@H](O)C[C@H]1C(=O)N1C(=O)C=C[C@@H]1C)C(C)C)[C@@H](C)NC(=O)[C@@H](N)CCSC` [Compound 16f] were, in that order, 13.1 ± 6.3 nM and 0.17 mg/mL (≈ 189 µM).
The like results for `CCCC[C@@H](C)C[C@@H](C)C(=O)N(C)[C@@H](Cc1ccc(OC)cc1)C(=O)N[C@H](C(=O)N(C)[C@H](C(=O)N1C[C@@H](O)C[C@H]1C(=O)N1C(=O)C=C[C@@H]1C)C(C)C)[C@@H](C)NC(=O)CN` [Compound 16g] were, in that order, 43.1 ± 29.8 nM and 0.16 mg/mL (≈ 194 µM).
As to `CCCC[C@@H](C)C[C@@H](C)C(=O)N(C)[C@@H](Cc1ccc(OC)cc1)C(=O)N[C@H](C(=O)N(C)[C@H](C(=O)N1C[C@@H](O)C[C@H]1C(=O)N1C(=O)C=C[C@@H]1C)C(C)C)[C@@H](C)NC(=O)[C@H](C)N` [Compound 16h], the 50% inhibitory concentration (IC50) in the data set with PANC-1 cells (setting [5]) was found to be 79.9 ± 45.9 nM. In addition, the solubility in data set [1] is 0.36 mg/mL (≈ 429 µM).
Take `CCCC[C@@H](C)C[C@@H](C)C(=O)N(C)[C@@H](Cc1ccc(OC)cc1)C(=O)N[C@H](C(=O)N(C)[C@H](C(=O)N1C[C@@H](O)C[C@H]1C(=O)N1C(=O)C=C[C@@H]1C)C(C)C)[C@@H](C)NC(=O)[C@@H](N)CCC(N)=O` [Compound 16i]: the IC50 in the data set with PANC-1 cells (setting [5]) is 740 ± 713 nM. In data set [1], this molecule gave a solubility of 0.53 mg/mL (≈ 591 µM).
On the same counts, the results for `CCCC[C@@H](C)C[C@@H](C)C(=O)N(C)[C@@H](Cc1ccc(OC)cc1)C(=O)N[C@H](C(=O)N(C)[C@H](C(=O)N1C[C@@H](O)C[C@H]1C(=O)N1C(=O)C=C[C@@H]1C)C(C)C)[C@@H](C)NC(=O)[C@@H](N)CO` [Compound 16j] are 184 ± 33.2 nM and 0.36 mg/mL (≈ 421 µM).
On the same counts, the results for `CCCC[C@@H](C)C[C@@H](C)C(=O)N(C)[C@@H](Cc1ccc(OC)cc1)C(=O)N[C@H](C(=O)N(C)[C@H](C(=O)N1C[C@@H](O)C[C@H]1C(=O)N1C(=O)C=C[C@@H]1C)C(C)C)[C@@H](C)NC(=O)C1CCC(=O)N1` (stereo partly shown) [Compound 16k] are 472 ± 69.7 nM and 0.33 mg/mL (≈ 375 µM).
For the molecule `CCCC[C@@H](C)C[C@@H](C)C(=O)N(C)[C@@H](Cc1ccc(OC)cc1)C(=O)N[C@H](C(=O)N(C)[C@H](C(=O)N1C[C@@H](O)C[C@H]1C(=O)N1C(=O)C=C[C@@H]1C)C(C)C)[C@@H](C)NC(=O)[C@@H](N)Cc1ccccc1` [Compound 16l], the IC50 in the data set on PANC-1 cells (setting [5]) is 55.4 ± 14.7 nM. This molecule registered a solubility in data set [1] of 0.13 mg/mL (≈ 142 µM).
The like results for `CCCC[C@@H](C)C[C@@H](C)C(=O)N(C)[C@@H](Cc1ccc(OC)cc1)C(=O)N[C@H](C(=O)N(C)[C@H](C(=O)N1C[C@@H](O)C[C@H]1C(=O)N1C(=O)C=C[C@@H]1C)C(C)C)[C@@H](C)NC(=O)[C@@H](N)Cc1ccc(O)cc1` [Compound 16m] were, in that order, 278 ± 14.9 nM and 0.16 mg/mL (≈ 172 µM).
Consider `Nc1ccn([C@@H]2O[C@H](CO)[C@@H](O)C2(F)F)c(=O)n1` [Gemcitabine, reference compound], for which the “tumor inhibition rate (%)” value in the data set on PANC-1 xenograft tumor (calculated from tumor weight, day 24, 1a, 1c, 1n 5 mg/kg, gemcitabine 20 mg/kg i.v.) is 51.0%. Moreover, the tumor weight with PANC-1 xenograft tumor (day 24, i.v. every other day, 1a, 1n 5 mg/kg, gemcitabine 20 mg/kg, mean ± SD) is 0.548 ± 0.153 g. Besides, the tumor volume with PANC-1 xenograft tumor (mouse, in vivo) is 561.1 ± 177.3 mm^3.
